Measured values reported in PubChem BioAssay (NCI).
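In this assay, cells in 96-well plates receive the compound at five concentrations for 48 hours. Endpoints are linearly interpolated between the surrounding concentrations. Abbreviation: GI50, concentration required for 50% inhibition of growth. TGI: total growth inhibition.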

Legend:
Assay in all cases: NCI-60 cell line screen, 48 h
OVCAR-5 ovarian = tested on: OVCAR-5 ovarian
HOP-92 NSCLC = tested on: HOP-92 NSCLC
CCRF-CEM leukemia = tested on: CCRF-CEM leukemia
NCI-H226 lung = tested on: NCI-H226 lung
SF-295 CNS = tested on: SF-295 CNS
HL-60(TB) leukemia = tested on: HL-60(TB) leukemia
KM20L2 colon = tested on: KM20L2 colon
SNB-75 CNS = tested on: SNB-75 CNS
SNB-78 CNS = tested on: SNB-78 CNS
SK-MEL-5 melanoma = tested on: SK-MEL-5 melanoma
TK-10 renal = tested on: TK-10 renal

Compound	TGI (OVCAR-5 ovarian) [µM]	TGI (HOP-92 NSCLC) [µM]	TGI (CCRF-CEM leukemia) [µM]	TGI (NCI-H226 lung) [µM]	TGI (SF-295 CNS) [µM]	TGI (HL-60(TB) leukemia) [µM]	TGI (KM20L2 colon) [µM]	TGI (SNB-75 CNS) [µM]	TGI (SNB-78 CNS) [µM]	TGI (SK-MEL-5 melanoma) [µM]	TGI (TK-10 renal) [µM]	GI50 (OVCAR-5 ovarian) [µM]	GI50 (TK-10 renal) [nM]	GI50 (HOP-92 NSCLC) [µM]	GI50 (CCRF-CEM leukemia) [µM]	GI50 (NCI-H226 lung) [µM]	GI50 (SF-295 CNS) [µM]	GI50 (HL-60(TB) leukemia) [nM]	GI50 (SNB-75 CNS) [nM]	GI50 (SK-MEL-5 melanoma) [µM]
CCCN1C(=O)/C(=C(/O)C(=O)OCC)C(c2ccc(OC)c(OC)c2)C1=O (stereo not given)	> 100	> 100	> 100	> 100	> 100	> 100	> 100	> 100	> 100	> 100	–	–	–	–	–	–	–	–	–	–
Cc1ccc(Nc2ccc(Nc3ccc(C)cc3S(=O)(=O)O)c3c2C(=O)c2ccccc2C3=O)c(S(=O)(=O)O)c1	–	–	> 100	> 100	–	> 100	> 100	> 100	> 100	> 100	> 100	–	–	–	–	–	–	–	–	–
CC(=O)OC1C(O)C(C)OC(OC(=O)C2CCC3C(C2)OC2(CC(OC(=O)/C=C/c4ccccc4)C(C)CO2)C32CO2)C1OC1OC(C)C(O)C(O)C1O (stereo not given)	1.24	0.0396	1.26	0.1	0.542	0.579	1.42	0.135	0.104	0.0897	–	–	–	–	–	–	–	–	–	–
CCCC1C(C#N)(C#N)C(C#N)=C(N)C1(C)C(C)=O (stereo not given)	> 100	> 100	> 100	> 100	> 100	> 100	–	96.9	–	> 100	> 100	–	–	–	–	–	–	–	–	–
CCOC(=O)/C=C1/Nc2cc(F)c(F)cc2NC1=O	> 100	> 100	> 100	> 100	> 100	> 100	–	> 100	–	> 100	> 100	–	–	–	–	–	–	–	–	–
CCCN(CCC)c1c([N+](=O)[O-])cc(C(=O)N(C)C)cc1[N+](=O)[O-]	> 100	–	> 100	–	> 100	86.8	–	31.5	> 100	28.9	> 100	–	–	–	–	–	–	–	–	–
CCOC(=O)c1ccc(NC(NC(=O)CC)(C(F)(F)F)C(F)(F)F)cc1	> 100	> 100	> 100	> 100	> 100	> 100	–	> 100	–	> 100	> 100	–	–	–	–	–	–	–	–	–
Cc1ccc(NC(=O)CC(=O)N2N=C(c3ccccc3)C(N=Nc3ccc(S(=O)(=O)CCOS(=O)(=O)O)cc3)C2=O)cc1 (stereo not given)	> 100	> 100	> 100	> 100	> 100	> 100	–	> 100	–	> 100	> 100	–	–	–	–	–	–	–	–	–
Cc1oc2c(C)c3oc(=O)cc(C)c3cc2c1CN	> 100	–	> 100	91.2	> 100	> 100	> 100	> 100	> 100	–	86.9	–	–	–	–	–	–	–	–	–
COC1=CCC2=C(CCN(C(=O)C3CCC3)C2Cc2ccc(OC)c(O)c2)C1 (stereo not given)	92	79.4	> 100	> 100	45.4	51.5	–	35.9	–	73.3	64.5	–	–	–	–	–	–	–	–	–
CC(C)(Oc1ccc(C(=O)c2ccc(Cl)cc2)cc1Cl)C(=O)N1CCN(c2ccccc2)CC1	> 100	> 100	> 100	–	> 100	> 100	> 100	–	> 100	> 100	> 100	–	–	–	–	–	–	–	–	–
NC(CNc1ccc(O)cc1)C(=O)O (stereo not given)	> 100	> 100	> 100	> 100	> 100	95.7	> 100	> 100	> 100	> 100	> 100	–	–	–	–	–	–	–	–	–
N#CI1OC(C(F)(F)F)(C(F)(F)F)c2ccccc21	36.6	42.5	> 100	49	> 100	> 100	–	32.4	–	33.8	39.1	–	–	–	–	–	–	–	–	–
COc1cc(C2c3cc4c(cc3OC(N3CCOCC3)C2C)OCO4)cc(OC)c1OC(C)=O (stereo not given)	> 100	> 100	> 100	62.7	49	> 59	–	25.2	–	> 51	> 100	–	–	–	–	–	–	–	–	–
COC1CCC(n2c([C@@H]3CCCC(=O)N3c3ccc(F)c(F)c3)nc3cc(-c4c(C)noc4C)ccc32)CC1 (stereo not given in full)	> 100	14.2	57.7	19.7	29	36.4	–	0.961	–	18.6	12.7	17.2	2460	2.04	4.66	4.31	6.72	851	10.8	5.81
O=C(O)C(CO)NC(=O)C1C(C(=O)O)C(c2ccccc2[N+](=O)[O-])C=C(c2ccco2)N1c1ccncc1 (stereo not given)	25.4	25.7	5.32	39.1	19	> 100	–	22.3	–	10.2	9.48	–	–	–	–	–	–	–	–	–
Cc1ccnc2sc3ccccc3c(=O)c12	> 100	> 100	> 100	> 100	> 100	> 100	–	63.2	–	73.4	90.6	–	–	–	–	–	–	–	–	–
CC1=CC(=O)/C(=C/N2CCNC2=S)C(=O)O1	> 100	> 100	> 100	> 100	> 100	> 100	–	> 100	–	> 100	> 100	–	–	–	–	–	–	–	–	–
Cc1nn(C(=O)c2ccc(Cl)cc2)c2c1C(c1ccco1)SC(N)=N2 (stereo not given)	> 10	> 10	> 10	> 10	> 10	> 10	–	> 10	–	> 10	> 10	–	–	–	–	–	–	–	–	–
O=C(CC(=O)Nc1ccccc1Cl)NNC(Sc1ccccc1)c1cc(N=Nc2ccc(Br)cc2)ccc1O (stereo not given)	> 10	6.68	6.21	6.04	8.39	1.1	–	> 10	–	3.95	9.08	–	–	–	–	–	–	–	–	–
CC(CN(C)C)C(=O)/C=C/c1ccc(Cl)c(Cl)c1 (stereo not given)	4.07	3.48	2.74	5.57	12.9	4.46	–	51.1	–	2.99	4.63	–	–	–	–	–	–	–	–	–
Cc1nc(N)nc(N)c1N1CCN(Cc2ccccc2)CC1	> 100	> 100	> 100	> 100	> 100	> 100	–	> 100	–	> 100	> 100	–	–	–	–	–	–	–	–	–
CSc1nc(=O)c(C#N)c(-c2ccccc2)n1C1OC(COC(C)=O)C(OC(C)=O)C(OC(C)=O)C1OC(C)=O (stereo not given)	> 100	> 100	> 100	> 100	> 100	> 100	–	> 100	–	> 100	> 100	–	–	–	–	–	–	–	–	–
Cc1cnc2[nH]c(-c3cccc(Cl)c3)cc(=O)c2c1	> 100	> 100	> 100	87.3	1.64	0.609	–	36.2	–	16	> 100	–	–	–	–	–	–	–	–	–
C=CCc1cccc2cc(C(=O)Nc3nc(C45CC6CC(CC(C6)C4)C5)cs3)c(=O)oc12	> 100	43.1	> 100	> 100	31.3	> 100	–	> 100	–	> 100	89.8	–	–	–	–	–	–	–	–	–
C/C(=C/c1c(C)[nH]c(=O)[nH]c1=O)C(=O)O	1370	> 1380	> 1380	> 1370	> 1380	> 1380	> 1370	> 1380	> 1380	> 1370	–	–	–	> 1380	–	–	–	–	–	–
CCOC(=O)/C=C(/C(=O)OCC)n1ccc(=O)[nH]c1=O	14.4	4.32	3.99	14.5	34.7	4.08	–	29.2	–	31	10.5	–	–	–	–	–	–	–	–	–
O=C(CCC(=O)OCC1OC(O)(CC2OC(CO)C(O)C(O)C2O)C(O)C1O)OCc1ccccc1 (stereo not given)	> 100	> 100	> 100	> 100	> 100	> 100	–	> 100	–	> 100	> 100	–	–	–	–	–	–	–	–	–
